# Source: ChEMBL document CHEMBL1201862, “PubChem BioAssay data set” (2004)
# The source made the active and inactive calls.
# What was measured:
# [1] = biological target: Voltage-dependent T-type calcium channel subunit alpha-1H (Homo sapiens, UniProt O95180); type: functional;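 note: channel activity triggered by adding a high calcium stimulation buffer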
# [2] = biological target: Serine/threonine-protein phosphatase PP1-alpha catalytic subunit (Homo sapiens, UniProt P62136); test: inhibition of protein phosphatase 1 activity – biochemical, fluorescence, dose response (AID 2394)
# Sequence of Serine/threonine-protein phosphatase PP1-alpha catalytic subunit (P62136 whole entry): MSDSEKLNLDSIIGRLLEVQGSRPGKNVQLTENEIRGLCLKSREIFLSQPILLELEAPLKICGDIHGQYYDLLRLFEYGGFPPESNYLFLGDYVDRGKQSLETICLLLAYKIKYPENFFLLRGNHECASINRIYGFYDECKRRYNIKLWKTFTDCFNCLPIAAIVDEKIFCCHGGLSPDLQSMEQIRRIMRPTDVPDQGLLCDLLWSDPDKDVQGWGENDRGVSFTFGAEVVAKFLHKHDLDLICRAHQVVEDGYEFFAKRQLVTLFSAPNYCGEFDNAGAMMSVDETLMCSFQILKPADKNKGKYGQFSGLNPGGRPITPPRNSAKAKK
# [3] = biological target: DNA (cytosine-5)-methyltransferase 1 (Homo sapiens, UniProt P26358); test: inhibition of DNA methylation by DNMT1 – biochemical, fluorescent molecular beacon, confirmation (AID 602386); type: functional
# Sequence of DNA (cytosine-5)-methyltransferase 1 (P26358 whole entry): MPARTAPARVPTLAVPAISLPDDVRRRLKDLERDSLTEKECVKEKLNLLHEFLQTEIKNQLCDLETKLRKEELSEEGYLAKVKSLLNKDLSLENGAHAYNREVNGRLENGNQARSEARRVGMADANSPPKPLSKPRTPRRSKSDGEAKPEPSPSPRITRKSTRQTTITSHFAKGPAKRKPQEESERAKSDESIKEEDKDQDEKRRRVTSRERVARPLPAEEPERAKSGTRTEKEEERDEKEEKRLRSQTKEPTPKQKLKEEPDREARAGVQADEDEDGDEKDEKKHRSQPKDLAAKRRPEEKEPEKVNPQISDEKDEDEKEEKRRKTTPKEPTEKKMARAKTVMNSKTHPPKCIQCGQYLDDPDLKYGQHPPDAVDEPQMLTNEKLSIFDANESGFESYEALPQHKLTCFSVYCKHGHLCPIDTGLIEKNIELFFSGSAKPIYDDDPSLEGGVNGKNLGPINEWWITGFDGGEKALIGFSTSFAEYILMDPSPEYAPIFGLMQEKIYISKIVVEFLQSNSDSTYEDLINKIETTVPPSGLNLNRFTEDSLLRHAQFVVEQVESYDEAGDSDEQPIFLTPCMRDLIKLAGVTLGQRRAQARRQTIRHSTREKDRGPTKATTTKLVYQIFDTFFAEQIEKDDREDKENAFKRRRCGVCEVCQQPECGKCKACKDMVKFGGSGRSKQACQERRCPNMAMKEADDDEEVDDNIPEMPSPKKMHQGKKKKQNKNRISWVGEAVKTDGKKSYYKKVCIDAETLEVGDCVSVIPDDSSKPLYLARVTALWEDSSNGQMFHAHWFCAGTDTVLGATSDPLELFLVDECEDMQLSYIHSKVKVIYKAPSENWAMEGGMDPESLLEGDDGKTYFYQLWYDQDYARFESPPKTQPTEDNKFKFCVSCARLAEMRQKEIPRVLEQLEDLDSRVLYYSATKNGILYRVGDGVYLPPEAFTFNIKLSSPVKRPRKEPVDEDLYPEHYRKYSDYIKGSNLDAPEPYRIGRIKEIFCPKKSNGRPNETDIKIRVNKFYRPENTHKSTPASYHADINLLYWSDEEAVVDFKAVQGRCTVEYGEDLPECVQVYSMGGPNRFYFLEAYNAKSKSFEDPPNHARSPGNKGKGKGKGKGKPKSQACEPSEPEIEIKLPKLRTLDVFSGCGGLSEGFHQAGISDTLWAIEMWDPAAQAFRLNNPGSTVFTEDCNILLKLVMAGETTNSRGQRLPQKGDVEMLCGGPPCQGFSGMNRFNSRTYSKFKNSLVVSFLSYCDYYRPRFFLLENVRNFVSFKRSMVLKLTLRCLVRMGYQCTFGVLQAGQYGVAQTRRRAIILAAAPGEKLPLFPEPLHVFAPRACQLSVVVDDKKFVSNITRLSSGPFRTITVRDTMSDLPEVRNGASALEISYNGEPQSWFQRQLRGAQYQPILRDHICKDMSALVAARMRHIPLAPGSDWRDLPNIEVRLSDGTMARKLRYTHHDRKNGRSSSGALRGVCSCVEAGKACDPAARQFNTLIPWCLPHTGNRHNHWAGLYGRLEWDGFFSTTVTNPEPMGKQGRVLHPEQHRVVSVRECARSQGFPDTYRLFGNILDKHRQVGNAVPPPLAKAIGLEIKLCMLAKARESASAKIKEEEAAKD
# [4] = biological target: T1, Tyrosine-protein phosphatase non-receptor type 22 (Homo sapiens, UniProt Q9Y2R2); type: functional;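 note: confirmatory dose-response retesting of primary uHTS hits against LYP; potency is for inhibition of phosphatase activity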
# T1 sequence (Q9Y2R2 whole entry): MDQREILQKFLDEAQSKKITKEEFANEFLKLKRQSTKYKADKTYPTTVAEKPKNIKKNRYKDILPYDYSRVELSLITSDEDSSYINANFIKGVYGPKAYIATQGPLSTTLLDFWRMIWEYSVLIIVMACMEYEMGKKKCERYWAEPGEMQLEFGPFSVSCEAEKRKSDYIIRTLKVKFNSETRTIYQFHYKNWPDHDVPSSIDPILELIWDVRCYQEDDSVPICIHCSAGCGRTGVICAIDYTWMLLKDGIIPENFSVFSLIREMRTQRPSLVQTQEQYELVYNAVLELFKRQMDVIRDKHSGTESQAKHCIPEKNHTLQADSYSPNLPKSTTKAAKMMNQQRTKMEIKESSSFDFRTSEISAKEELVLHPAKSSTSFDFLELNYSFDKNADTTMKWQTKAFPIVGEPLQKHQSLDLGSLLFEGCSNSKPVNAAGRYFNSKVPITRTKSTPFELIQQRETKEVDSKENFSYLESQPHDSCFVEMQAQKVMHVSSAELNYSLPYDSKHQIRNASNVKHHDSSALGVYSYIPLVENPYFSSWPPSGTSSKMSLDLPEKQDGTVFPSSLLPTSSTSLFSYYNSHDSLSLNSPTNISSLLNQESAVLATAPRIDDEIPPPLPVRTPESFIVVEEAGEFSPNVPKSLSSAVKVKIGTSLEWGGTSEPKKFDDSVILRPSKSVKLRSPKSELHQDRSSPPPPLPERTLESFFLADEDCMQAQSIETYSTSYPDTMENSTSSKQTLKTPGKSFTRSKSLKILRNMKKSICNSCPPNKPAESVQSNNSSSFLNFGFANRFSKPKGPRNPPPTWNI
# [5] = biological target: T2, Tyrosine-protein phosphatase non-receptor type 11 (Homo sapiens, UniProt Q06124); test: PTPN11 enzyme inhibitors – biochemical, selectivity assay for STEP inhibitor project, dose response (AID 602367); type: functional; conditions: read-out: IC50_Mean
# T2 sequence (Q06124 whole entry): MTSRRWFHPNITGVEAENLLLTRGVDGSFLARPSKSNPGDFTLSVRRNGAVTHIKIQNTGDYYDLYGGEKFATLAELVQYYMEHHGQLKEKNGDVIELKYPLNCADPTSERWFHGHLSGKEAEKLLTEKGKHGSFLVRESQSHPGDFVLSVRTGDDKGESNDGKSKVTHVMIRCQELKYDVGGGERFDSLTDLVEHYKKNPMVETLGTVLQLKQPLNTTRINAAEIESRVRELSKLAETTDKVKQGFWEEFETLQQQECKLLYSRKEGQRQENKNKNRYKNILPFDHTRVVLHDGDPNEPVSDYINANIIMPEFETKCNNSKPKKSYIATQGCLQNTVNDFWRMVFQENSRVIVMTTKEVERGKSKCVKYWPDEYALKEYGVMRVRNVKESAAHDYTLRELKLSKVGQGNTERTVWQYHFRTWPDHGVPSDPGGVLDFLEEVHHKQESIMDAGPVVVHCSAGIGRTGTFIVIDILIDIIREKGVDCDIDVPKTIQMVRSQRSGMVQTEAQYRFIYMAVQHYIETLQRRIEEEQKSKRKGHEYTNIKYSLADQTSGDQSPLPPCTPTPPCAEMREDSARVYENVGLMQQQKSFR
# [6] = biological target: T3, Tyrosine-protein phosphatase non-receptor type 7 (Homo sapiens, UniProt P35236); test: HTS HePTP Fluorescent Assay using OMFP substrate for In Vitro dose response studies. [Related pubchem assays (depositor defined):AID1059, AID1077, AID1784, AID2068, AID2085, AID435032, AID521]; type: functional
# T3 sequence (P35236 whole entry): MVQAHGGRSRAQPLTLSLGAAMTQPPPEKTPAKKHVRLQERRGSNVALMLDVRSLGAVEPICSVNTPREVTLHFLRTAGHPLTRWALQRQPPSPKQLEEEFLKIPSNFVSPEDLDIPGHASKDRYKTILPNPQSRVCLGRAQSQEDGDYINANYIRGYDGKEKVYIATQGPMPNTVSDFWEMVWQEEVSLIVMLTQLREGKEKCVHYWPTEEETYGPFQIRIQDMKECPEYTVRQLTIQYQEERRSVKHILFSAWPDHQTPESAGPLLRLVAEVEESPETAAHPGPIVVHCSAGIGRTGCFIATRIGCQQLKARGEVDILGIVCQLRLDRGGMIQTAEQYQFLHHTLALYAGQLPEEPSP
# [7] = biological target: T1, Tyrosine-protein phosphatase non-receptor type 22; test: lymphoid phosphatase LYP inhibitors – biochemical, selectivity assay for STEP inhibitor project, dose response (AID 624241); type: functional
# [8] = biological target: T1, Tyrosine-protein phosphatase non-receptor type 22; test: PTPN22 lymphoid phosphatase activity blockers – biochemical, fluorescence intensity, uHTS (AID 1779)
# [9] = biological target: T4, Tyrosine-protein phosphatase non-receptor type 5 (Homo sapiens, UniProt P54829); test: PTPN5 enzyme inhibition – biochemical, fluorescence intensity, uHTS hits, confirmation (AID 602372); type: functional; conditions: read-out: IC50_Mean
# T4 sequence (P54829 whole entry): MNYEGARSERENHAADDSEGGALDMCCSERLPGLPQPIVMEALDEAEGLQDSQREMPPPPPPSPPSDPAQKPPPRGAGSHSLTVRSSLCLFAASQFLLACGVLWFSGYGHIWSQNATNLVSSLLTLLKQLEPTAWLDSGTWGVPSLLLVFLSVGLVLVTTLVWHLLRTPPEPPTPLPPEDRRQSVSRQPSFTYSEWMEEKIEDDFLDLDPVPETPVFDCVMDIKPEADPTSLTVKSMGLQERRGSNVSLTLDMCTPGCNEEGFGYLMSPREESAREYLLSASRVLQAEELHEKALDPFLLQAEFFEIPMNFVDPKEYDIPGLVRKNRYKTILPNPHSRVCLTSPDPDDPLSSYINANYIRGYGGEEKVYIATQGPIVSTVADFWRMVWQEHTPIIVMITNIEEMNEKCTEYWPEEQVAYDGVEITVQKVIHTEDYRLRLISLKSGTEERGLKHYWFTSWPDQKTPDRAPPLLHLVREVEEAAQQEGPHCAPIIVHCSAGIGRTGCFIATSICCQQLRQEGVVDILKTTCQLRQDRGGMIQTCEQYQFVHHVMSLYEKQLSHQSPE
# HEK293 = test: optical interference in Abeta FP readout, dose response, artefact control for IDE activator project, biochemical, fluorescence polarization (AID 588442); type: functional, cell-based; conditions: Homo sapiens
# Sequence of Voltage-dependent T-type calcium channel subunit alpha-1H (O95180 whole entry): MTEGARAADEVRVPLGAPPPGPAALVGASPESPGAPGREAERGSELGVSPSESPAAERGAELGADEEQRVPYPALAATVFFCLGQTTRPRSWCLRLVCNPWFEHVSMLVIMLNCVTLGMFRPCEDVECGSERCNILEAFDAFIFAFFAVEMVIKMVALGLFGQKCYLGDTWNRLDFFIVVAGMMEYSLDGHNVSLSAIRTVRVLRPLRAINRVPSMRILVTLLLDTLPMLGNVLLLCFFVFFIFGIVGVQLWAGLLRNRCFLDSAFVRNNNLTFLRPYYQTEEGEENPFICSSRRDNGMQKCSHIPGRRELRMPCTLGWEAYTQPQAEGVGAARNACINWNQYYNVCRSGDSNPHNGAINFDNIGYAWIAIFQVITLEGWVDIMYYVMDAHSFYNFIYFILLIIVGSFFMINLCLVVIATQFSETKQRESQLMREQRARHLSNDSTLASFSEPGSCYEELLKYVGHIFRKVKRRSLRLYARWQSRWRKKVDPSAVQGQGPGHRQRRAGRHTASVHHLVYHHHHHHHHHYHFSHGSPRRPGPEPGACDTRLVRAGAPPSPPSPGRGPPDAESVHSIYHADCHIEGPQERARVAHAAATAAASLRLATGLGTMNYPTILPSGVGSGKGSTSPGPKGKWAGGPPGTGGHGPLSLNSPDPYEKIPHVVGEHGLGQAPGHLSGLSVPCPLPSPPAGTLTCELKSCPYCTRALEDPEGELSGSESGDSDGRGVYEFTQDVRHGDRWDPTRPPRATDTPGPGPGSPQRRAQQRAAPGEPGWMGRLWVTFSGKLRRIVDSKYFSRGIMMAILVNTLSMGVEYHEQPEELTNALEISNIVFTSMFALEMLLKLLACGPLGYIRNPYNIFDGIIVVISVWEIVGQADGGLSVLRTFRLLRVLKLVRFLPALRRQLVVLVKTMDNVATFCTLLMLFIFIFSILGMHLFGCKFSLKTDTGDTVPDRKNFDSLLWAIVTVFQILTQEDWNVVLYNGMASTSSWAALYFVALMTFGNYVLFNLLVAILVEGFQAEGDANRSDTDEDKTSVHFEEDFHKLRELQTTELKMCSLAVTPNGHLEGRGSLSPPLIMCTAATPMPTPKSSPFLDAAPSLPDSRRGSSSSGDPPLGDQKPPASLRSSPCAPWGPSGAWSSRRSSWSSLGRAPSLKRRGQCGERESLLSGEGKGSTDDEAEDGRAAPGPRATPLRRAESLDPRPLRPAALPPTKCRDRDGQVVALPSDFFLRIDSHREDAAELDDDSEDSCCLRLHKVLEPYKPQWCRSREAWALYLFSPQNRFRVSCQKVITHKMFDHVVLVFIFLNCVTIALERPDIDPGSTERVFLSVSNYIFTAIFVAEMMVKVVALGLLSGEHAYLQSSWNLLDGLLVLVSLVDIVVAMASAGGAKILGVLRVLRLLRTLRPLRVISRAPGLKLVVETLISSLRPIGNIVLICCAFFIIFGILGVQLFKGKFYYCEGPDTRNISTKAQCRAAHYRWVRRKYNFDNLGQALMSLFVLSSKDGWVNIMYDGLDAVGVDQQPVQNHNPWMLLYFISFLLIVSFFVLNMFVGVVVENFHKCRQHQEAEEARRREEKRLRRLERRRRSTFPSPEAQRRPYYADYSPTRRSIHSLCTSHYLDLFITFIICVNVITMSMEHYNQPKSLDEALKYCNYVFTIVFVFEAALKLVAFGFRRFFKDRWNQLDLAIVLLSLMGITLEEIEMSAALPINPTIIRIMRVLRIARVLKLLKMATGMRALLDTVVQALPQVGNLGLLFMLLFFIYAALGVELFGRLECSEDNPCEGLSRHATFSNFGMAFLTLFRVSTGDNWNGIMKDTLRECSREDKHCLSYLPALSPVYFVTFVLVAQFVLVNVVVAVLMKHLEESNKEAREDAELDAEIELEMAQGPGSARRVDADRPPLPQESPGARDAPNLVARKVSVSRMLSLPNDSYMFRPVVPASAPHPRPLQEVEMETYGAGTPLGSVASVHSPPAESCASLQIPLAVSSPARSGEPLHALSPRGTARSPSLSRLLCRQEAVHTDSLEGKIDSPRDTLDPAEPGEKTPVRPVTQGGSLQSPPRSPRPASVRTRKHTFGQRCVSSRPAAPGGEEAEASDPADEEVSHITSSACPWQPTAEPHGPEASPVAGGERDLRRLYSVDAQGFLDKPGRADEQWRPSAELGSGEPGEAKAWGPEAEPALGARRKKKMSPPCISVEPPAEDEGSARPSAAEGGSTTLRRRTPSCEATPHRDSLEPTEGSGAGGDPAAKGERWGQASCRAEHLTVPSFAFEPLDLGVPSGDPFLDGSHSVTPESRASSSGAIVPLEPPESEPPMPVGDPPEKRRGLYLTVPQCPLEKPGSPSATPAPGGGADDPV
compound,measurement,setting,value
C=CCn1c(NC(=O)c2ccccc2Cl)c(C#N)c2nc3ccccc3nc21,EC50,[1],4.23 µM (active)
same,IC50,[2],43.6 µM (not active)
CCOC(=O)c1sc2nc3c(SCC(=O)O)cc(C(=O)c4ccccc4O)cn3c(=O)c2c1C,IC50,[3],4.12 µM (active)
same,IC50,[4],< 1.24 µM (active)
same,IC50,[5],1.08 µM (active)
same,IC50,[6],> 99 µM (inactive)
same,IC50,[7],1.16 µM (active)
same,IC50,[8],> 99 µM (inactive)
same,IC50,[9],2.18 µM (active)
O=c1oc2c(O)cccc2cc1-c1nc2ccccc2[nH]1,EC50,HEK293,> 54.7 µM (inactive)
